The source of these data is ChEMBL document CHEMBL5375989, “Pioneering 4,11-Dioxo-4,11-dihydro-1H-anthra[2,3-d]imidazol-3-ium Compounds as Promising Survivin Inhibitors by Targeting ILF3/NF110 for Cancer Therapy” (J Med Chem, 2023).

Each structure is given as a SMILES string. pIC50: −log10 of the molar value.

Series [1] is described as follows: (§1) Antiproliferative activity against mouse L929 cells assessed as inhibition of cell growth measured after 48 hrs by MTT assay. It is filed as toxicity, cell-based. Particulars: mouse, L929 cells. (In general: Tetrazolium dyes change colour on reduction, which living cells bring about.)
Series [2] in a line: Selectivity index, ratio of IC50 for mouse L929 cells to IC50 for human A549 cells. The conditions noted are these: for selectivity ratio: L929 cells and A549 cells, read-out: Ratio IC50. It counts as toxicity.
In series [3] the test system is A549. Briefly: cells. The conditions noted are these: Homo sapiens, A549, 48 h.
Description: (§2) Antiproliferative activity against human A549 cells assessed as inhibition of cell growth measured after 48 hrs by MTT assay
The test system of a further series is L929. Described as §1. It is filed as toxicity, cell-based. The conditions noted are these: l929.
Series [4] concerns A549.
Description: as §2

In the case of `Cn1c2c([n+](C)c1-c1ccccc1F)C(=O)c1cc3ccccc3cc1C2=O`, the IC50 at 48 h in series [1] amounted to 10700 nM. In addition, the selectivity ratio in series [2] came to 13. In the series on A549 [3], this molecule gave a pIC50 of 6.07.
With `Cc1ccc(S(=O)(=O)[O-])cc1.Cn1c[n+](C)c2c1C(=O)c1ccccc1C2=O`, the pIC50 in the series with L929 is 6.27; in the series with A549 [4] it was 6.55. Moreover, in series [2], the “Ratio IC50” value was 1.9.
The matching figures for `Cn1c[n+](C)c2c1C(=O)c1ccccc1C2=O.[I-]`: 5.45, 7.52 and 117.
Turning to `Cn1c2c([n+](C)c1-c1ccco1)C(=O)c1cc3ccccc3cc1C2=O`, the IC50 at 48 h in series [1] was found to be 8900 nM. Further, the selectivity ratio in series [2] was 99. Moreover, in the series with A549 [3], the pIC50 was 7.05.
Take `CCn1c[n+](CC)c2c1C(=O)c1ccccc1C2=O`: in series [1], the half-maximal inhibitory concentration (IC50) at 48 h is 5200 nM. In series [2], the selectivity ratio amounted to 86.7. This molecule also had a pIC50 in the series with A549 [3] of 7.22.
For the molecule `CCCCn1c[n+](CCCC)c2c1C(=O)c1ccccc1C2=O`, in series [1], the IC50 at 48 h is 6000 nM. Also, the selectivity ratio in series [2] is 11.8. Moreover, in the series on A549 [3], the negative-log IC50 (pIC50) was 6.29.
The matching figures for `O=C1c2ccccc2C(=O)c2c1n(-c1ccccc1)c[n+]2-c1ccccc1`: 66900 nM, 0.87 and 4.12.

Usually IC50 stands for the midpoint of a concentration-inhibition curve. As usually defined, the pIC50 is −log10 of the IC50, conventionally taken in molar units.
